Measurements: publication PMC3814616, “BRAF inhibitors suppress apoptosis through off-target inhibition of JNK signaling” (eLife, 2013)

Assays:
Experiment in all cases: Quantitative competitive binding assay (KINOMEscan)
MAP3K3 = molecular target: T1, MAP3K3 (Homo sapiens, UniProt Q99759); conditions: for remaining binding at 0.05 µM: read-out: Percent control (50 nM); for remaining binding at 0.2 µM: read-out: Percent control (200 nM); for remaining binding at 1 µM: read-out: Percent control (1000 nM); for remaining binding at 10 µM: read-out: Percent control (10 μM)
T1 construct: purchased KINOMEscan (DiscoveRx), San Diego, CA

MAP4K2 = molecular target: T2, MAP4K2 (Homo sapiens, UniProt Q12851); conditions: for remaining binding at 0.05 µM: read-out: Percent control (50 nM); for remaining binding at 0.2 µM: read-out: Percent control (200 nM); for remaining binding at 1 µM: read-out: Percent control (1000 nM); for remaining binding at 10 µM: read-out: Percent control (10 μM)
T2 construct: purchased KINOMEscan (DiscoveRx), San Diego, CA
T2 sequence (Q12851 1-820): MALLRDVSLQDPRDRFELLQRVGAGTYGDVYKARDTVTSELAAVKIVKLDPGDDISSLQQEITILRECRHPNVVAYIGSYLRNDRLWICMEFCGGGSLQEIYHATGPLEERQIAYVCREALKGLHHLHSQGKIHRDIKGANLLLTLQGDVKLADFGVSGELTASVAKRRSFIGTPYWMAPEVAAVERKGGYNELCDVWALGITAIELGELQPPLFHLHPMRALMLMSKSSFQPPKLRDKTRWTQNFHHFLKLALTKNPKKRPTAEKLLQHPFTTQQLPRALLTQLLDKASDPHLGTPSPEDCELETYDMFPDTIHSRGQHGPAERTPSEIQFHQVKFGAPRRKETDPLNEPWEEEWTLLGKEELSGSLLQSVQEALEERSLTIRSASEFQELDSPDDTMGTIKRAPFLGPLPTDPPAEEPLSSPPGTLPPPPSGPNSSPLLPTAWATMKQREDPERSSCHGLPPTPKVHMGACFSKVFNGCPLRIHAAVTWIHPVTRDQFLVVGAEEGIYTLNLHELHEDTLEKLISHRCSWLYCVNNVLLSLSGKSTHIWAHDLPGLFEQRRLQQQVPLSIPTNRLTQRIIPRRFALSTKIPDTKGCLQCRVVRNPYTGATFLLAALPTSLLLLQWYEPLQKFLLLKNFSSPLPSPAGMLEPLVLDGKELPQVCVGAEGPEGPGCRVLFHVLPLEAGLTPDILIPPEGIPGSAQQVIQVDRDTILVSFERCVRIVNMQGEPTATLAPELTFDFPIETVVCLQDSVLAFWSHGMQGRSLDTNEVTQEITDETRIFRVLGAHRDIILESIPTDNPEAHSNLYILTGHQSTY

MKK7 (MAP2K7) = molecular target: T3, MKK7 (MAP2K7) (Homo sapiens, UniProt O14733); conditions: for remaining binding at 0.05 µM: read-out: Percent control (50 nM); for remaining binding at 0.2 µM: read-out: Percent control (200 nM); for remaining binding at 1 µM: read-out: Percent control (1000 nM); for remaining binding at 10 µM: read-out: Percent control (10 μM)
T3 construct: purchased KINOMEscan (DiscoveRx), San Diego, CA
T3 sequence (O14733 1-419): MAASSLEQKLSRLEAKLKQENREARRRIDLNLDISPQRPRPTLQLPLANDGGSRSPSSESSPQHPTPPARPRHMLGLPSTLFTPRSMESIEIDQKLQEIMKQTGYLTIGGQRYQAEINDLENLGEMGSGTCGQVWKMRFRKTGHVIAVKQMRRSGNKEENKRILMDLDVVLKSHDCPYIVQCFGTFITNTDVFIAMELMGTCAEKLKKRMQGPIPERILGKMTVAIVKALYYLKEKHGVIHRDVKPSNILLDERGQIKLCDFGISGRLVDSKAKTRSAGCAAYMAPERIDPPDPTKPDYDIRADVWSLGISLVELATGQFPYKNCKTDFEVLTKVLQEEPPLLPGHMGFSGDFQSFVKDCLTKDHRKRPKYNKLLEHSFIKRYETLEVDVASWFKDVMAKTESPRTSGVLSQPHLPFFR

OSR1 (OXSR1) = molecular target: T4, OSR1 (OXSR1) (Homo sapiens, UniProt O95747); conditions: for remaining binding at 0.05 µM: read-out: Percent control (50 nM); for remaining binding at 0.2 µM: read-out: Percent control (200 nM); for remaining binding at 1 µM: read-out: Percent control (1000 nM); for remaining binding at 10 µM: read-out: Percent control (10 μM)
T4 construct: purchased KINOMEscan (DiscoveRx), San Diego, CA

RIPK1 = molecular target: T5, RIPK1 (Homo sapiens, UniProt Q13546); conditions: for remaining binding at 0.05 µM: read-out: Percent control (50 nM); for remaining binding at 0.2 µM: read-out: Percent control (200 nM); for remaining binding at 1 µM: read-out: Percent control (1000 nM); for remaining binding at 10 µM: read-out: Percent control (10 μM)
T5 construct: purchased KINOMEscan (DiscoveRx), San Diego, CA

STK39 = molecular target: T6, STK39 (Homo sapiens, UniProt Q9UEW8); conditions: for remaining binding at 0.05 µM: read-out: Percent control (50 nM); for remaining binding at 0.2 µM: read-out: Percent control (200 nM); for remaining binding at 1 µM: read-out: Percent control (1000 nM); for remaining binding at 10 µM: read-out: Percent control (10 μM)
T6 construct: purchased KINOMEscan (DiscoveRx), San Diego, CA

TAK1 (MAP3K7) = molecular target: T7, TAK1 (MAP3K7) (Homo sapiens, UniProt O43318); conditions: for remaining binding at 0.05 µM: read-out: Percent control (50 nM); for remaining binding at 0.2 µM: read-out: Percent control (200 nM); for remaining binding at 1 µM: read-out: Percent control (1000 nM); for remaining binding at 10 µM: read-out: Percent control (10 μM)
T7 construct: purchased KINOMEscan (DiscoveRx), San Diego, CA

TAOK1 = molecular target: T8, TAOK1 (Homo sapiens, UniProt Q7L7X3); conditions: for remaining binding at 0.2 µM: read-out: Percent control (200 nM); for remaining binding at 1 µM: read-out: Percent control (1000 nM); for remaining binding at 10 µM: read-out: Percent control (10 μM)
T8 construct: purchased KINOMEscan (DiscoveRx), San Diego, CA
T8 sequence (Q7L7X3 1-1001): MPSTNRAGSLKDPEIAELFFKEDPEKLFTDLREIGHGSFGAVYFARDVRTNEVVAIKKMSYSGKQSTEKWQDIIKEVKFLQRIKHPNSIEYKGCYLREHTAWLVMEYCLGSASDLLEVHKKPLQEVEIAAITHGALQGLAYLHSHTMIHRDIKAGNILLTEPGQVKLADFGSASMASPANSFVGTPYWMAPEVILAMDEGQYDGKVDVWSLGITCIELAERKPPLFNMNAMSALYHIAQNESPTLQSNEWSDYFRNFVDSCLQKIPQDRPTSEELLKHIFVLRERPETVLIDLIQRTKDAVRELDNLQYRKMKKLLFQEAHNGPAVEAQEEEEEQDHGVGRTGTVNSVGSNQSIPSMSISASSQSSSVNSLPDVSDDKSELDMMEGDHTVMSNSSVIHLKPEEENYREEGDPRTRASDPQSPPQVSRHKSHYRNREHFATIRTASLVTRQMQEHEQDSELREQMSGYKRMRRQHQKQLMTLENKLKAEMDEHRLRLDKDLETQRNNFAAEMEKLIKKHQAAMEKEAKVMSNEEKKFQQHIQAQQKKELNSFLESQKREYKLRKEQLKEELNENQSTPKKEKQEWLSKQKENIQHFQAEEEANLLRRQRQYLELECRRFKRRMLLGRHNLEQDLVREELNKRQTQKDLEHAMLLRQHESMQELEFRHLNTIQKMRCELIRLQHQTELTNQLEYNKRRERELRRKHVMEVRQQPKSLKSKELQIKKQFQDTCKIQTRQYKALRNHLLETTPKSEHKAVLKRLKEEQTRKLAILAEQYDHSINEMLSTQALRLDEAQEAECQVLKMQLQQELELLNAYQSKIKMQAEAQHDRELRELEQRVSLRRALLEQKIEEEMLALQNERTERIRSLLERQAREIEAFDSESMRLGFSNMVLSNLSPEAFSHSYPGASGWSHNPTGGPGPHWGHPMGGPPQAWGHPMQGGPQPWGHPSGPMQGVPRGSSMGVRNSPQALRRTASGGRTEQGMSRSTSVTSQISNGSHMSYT

T4 sequence (O95747 whole entry): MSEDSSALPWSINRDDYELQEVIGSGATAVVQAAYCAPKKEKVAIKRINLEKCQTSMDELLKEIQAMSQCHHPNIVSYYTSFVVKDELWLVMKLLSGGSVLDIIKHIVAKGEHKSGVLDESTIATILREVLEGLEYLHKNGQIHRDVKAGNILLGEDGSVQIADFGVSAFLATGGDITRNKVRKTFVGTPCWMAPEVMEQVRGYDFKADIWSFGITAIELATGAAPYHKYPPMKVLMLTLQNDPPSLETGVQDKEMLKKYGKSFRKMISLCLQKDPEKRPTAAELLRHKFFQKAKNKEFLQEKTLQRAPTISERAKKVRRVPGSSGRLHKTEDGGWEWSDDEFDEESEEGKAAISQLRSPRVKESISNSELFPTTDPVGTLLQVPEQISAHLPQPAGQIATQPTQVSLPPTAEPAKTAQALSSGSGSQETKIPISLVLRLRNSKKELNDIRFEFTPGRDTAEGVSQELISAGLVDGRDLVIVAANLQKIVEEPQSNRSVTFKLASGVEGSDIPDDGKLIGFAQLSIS
T7 sequence (O43318 whole entry): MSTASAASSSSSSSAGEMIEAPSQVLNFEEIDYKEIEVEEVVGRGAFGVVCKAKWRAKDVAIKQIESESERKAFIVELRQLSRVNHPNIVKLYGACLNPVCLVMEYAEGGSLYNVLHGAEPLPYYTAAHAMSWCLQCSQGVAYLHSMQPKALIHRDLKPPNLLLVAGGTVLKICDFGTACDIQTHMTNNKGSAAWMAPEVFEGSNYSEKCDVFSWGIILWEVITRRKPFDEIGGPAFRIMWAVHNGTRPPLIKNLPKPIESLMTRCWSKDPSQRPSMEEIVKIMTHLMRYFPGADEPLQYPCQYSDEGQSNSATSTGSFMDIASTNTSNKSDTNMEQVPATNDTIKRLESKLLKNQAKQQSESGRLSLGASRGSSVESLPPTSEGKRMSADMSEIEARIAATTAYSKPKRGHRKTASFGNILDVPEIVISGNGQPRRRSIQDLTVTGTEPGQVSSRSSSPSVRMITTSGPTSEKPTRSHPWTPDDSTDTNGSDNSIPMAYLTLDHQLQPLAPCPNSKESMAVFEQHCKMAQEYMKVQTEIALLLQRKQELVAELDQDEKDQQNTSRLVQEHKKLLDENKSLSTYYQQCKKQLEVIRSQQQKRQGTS
T1 sequence (Q99759 whole entry): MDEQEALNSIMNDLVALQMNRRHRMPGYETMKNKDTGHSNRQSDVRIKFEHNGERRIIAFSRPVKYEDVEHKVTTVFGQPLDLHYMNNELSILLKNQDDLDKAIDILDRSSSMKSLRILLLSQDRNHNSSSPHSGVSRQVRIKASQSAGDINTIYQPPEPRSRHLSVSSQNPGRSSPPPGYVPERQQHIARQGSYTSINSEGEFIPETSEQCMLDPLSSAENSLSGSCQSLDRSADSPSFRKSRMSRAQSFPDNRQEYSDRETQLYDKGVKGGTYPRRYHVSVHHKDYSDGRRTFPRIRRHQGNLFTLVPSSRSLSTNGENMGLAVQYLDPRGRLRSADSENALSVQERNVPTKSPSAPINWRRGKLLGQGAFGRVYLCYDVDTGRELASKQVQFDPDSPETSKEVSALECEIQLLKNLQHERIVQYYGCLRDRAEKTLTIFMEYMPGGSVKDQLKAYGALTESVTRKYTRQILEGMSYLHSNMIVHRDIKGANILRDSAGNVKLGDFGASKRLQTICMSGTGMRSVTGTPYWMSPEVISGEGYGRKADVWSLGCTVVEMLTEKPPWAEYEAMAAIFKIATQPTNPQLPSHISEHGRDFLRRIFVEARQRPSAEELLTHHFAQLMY
T5 sequence (Q13546 whole entry): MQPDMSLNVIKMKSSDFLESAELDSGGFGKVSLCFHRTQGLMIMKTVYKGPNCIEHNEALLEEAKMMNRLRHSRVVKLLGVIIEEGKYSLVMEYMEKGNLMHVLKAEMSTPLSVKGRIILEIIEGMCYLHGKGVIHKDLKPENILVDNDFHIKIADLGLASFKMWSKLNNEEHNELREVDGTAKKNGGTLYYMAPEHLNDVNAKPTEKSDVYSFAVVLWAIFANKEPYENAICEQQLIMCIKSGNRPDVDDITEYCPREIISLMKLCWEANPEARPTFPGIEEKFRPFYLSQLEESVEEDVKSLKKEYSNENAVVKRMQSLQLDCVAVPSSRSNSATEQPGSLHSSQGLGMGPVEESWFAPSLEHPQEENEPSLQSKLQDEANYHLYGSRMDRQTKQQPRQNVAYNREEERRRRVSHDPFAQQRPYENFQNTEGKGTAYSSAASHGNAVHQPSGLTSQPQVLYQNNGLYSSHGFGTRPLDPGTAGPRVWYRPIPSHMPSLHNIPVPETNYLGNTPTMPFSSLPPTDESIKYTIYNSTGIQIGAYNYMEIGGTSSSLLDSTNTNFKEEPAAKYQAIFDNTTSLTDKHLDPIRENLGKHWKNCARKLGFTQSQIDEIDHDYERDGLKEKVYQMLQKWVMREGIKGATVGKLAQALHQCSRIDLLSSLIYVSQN

SMILES | remaining binding at 0.05 µM (MAP3K3) [%] | remaining binding at 0.2 µM (MAP3K3) [%] | remaining binding at 1 µM (MAP3K3) [%] | remaining binding at 10 µM (MAP3K3) [%] | remaining binding at 0.05 µM (MAP4K2) [%] | remaining binding at 0.2 µM (MAP4K2) [%] | remaining binding at 1 µM (MAP4K2) [%] | remaining binding at 10 µM (MAP4K2) [%] | remaining binding at 0.05 µM (MKK7 (MAP2K7)) [%] | remaining binding at 0.2 µM (MKK7 (MAP2K7)) [%] | remaining binding at 1 µM (MKK7 (MAP2K7)) [%] | remaining binding at 10 µM (MKK7 (MAP2K7)) [%] | remaining binding at 0.05 µM (OSR1 (OXSR1)) [%] | remaining binding at 0.2 µM (OSR1 (OXSR1)) [%] | remaining binding at 1 µM (OSR1 (OXSR1)) [%] | remaining binding at 10 µM (OSR1 (OXSR1)) [%] | remaining binding at 0.05 µM (RIPK1) [%] | remaining binding at 0.2 µM (RIPK1) [%] | remaining binding at 1 µM (RIPK1) [%] | remaining binding at 10 µM (RIPK1) [%] | also measured
CCCS(=O)(=O)Nc1ccc(F)c(C(=O)c2c[nH]c3ncc(-c4ccc(Cl)cc4)cc23)c1F [vemurafenib] | 87 | 97 | 100 | 94 | 99 | 82 | 95 | 46 | 97 | 95 | 94 | 85 | 100 | 100 | 89 | 98 | 92 | 100 | 99 | 73 | remaining binding at 0.05 µM (STK39): 100%; remaining binding at 0.2 µM (STK39): 100%; remaining binding at 1 µM (STK39): 97%; remaining binding at 10 µM (STK39): 66%; remaining binding at 0.05 µM (TAK1 (MAP3K7)): 93%; remaining binding at 0.2 µM (TAK1 (MAP3K7)): 88%; remaining binding at 1 µM (TAK1 (MAP3K7)): 86%; remaining binding at 10 µM (TAK1 (MAP3K7)): 88%; remaining binding at 0.2 µM (TAOK1): 100%; remaining binding at 1 µM (TAOK1): 97%; remaining binding at 10 µM (TAOK1): 79%
CCCS(=O)(=O)Nc1ccc(F)c(C(=O)c2c[nH]c3ncc(Cl)cc23)c1F [PLX4720] | 94 | 97 | 98 | 75 | 98 | 100 | 99 | 67 | 100 | 100 | 100 | 84 | 100 | 94 | 95 | 42 | 99 | 87 | 85 | 50 | remaining binding at 0.05 µM (STK39): 100%; remaining binding at 0.2 µM (STK39): 100%; remaining binding at 1 µM (STK39): 100%; remaining binding at 10 µM (STK39): 59%; remaining binding at 0.05 µM (TAK1 (MAP3K7)): 90%; remaining binding at 0.2 µM (TAK1 (MAP3K7)): 88%; remaining binding at 1 µM (TAK1 (MAP3K7)): 85%; remaining binding at 10 µM (TAK1 (MAP3K7)): 49%; IC50 (TAOK1; estimated Kd, averaged pointwise estimates, transformed Hill equation, read-out: Calculated estimate of IC50): 7.53 µM; remaining binding at 0.05 µM (TAOK1; read-out: Percent control (50 nM)): 87%; remaining binding at 0.2 µM (TAOK1): 94%; remaining binding at 1 µM (TAOK1): 89%; remaining binding at 10 µM (TAOK1): 65%
